Where two headings read alike, the source gives them in different places.
Legend:
Format in all cases: cell-based
[1] = test system: HAP1 MTAP-intact cell line; assay: SDMA in-cell western assay, HAP1 MTAP-intact; details: Homo sapiens
Text: (§1) Table 1 also indicates IC50 values in an MTAP-isogenic cell line pair for exemplary compounds in an SDMA in-cell western assay (columns 7-8). HAP1 MTAP-intact is a cell line in which endogenous levels of MTAP are expressed, and HAP1 MTAP-deleted is an MTAP-null cell line.

[2] = test system: HAP1 MTAP-deleted cell line; assay: Viability assay, MTAP-deleted cell line; details: Homo sapiens
Text: Table 1 additionally indicates IC50 values in a viability assay for the MTAP-deleted cell line (column 10), indicating the effect of treatment with compound on cell survival.

[3] = test system: HAP1 MTAP-deleted cell line; assay: SDMA in-cell western assay, HAP1 MTAP-deleted; details: for IC50: Homo sapiens; for MTAP intact/deleted ratio: IC50 ratio HAP1 MTAP-intact / HAP1 MTAP-deleted, SDMA in-cell western
Text: as §1

[4] = HAP1, read-out: MTAP HAP1 intact IC50
[5] = HAP1, read-out: HAP1 MTAP deleted viability
[6] = HAP1, read-out: HAP1 MTAP deleted IC50
[7] = HAP1, SDMA in-cell western, HAP1 MTAP-intact, read-out: MTAP HAP1 intact IC50
[8] = HAP1, viability IC50, MTAP-deleted cell line, read-out: HAP1 MTAP deleted viability
[9] = HAP1, SDMA in-cell western, HAP1 MTAP-deleted, read-out: HAP 1 MTAP deleted IC50

IC50 [1, 4] [nM]	IC50 [3, 6] [nM]	Structure (SMILES)	IC50 [2, 5] [nM]	further results
< 100	< 100	Cc1cc(NC(=O)C(=O)N2C[C@H](C)CC[C@H]2c2ccc3sc(CN(C)C)nc3c2)cnc1N (single isomer, unassigned) [Compound 1122]	< 1000	–
< 100	< 100	COc1ncc(NC(=O)C(=O)N2C[C@@H](C)CC[C@@H]2c2ccc3sc(C4CCN(C)CC4)nc3c2)cc1C(N)=O (single isomer, unassigned) [Compound 1126]	< 1000	–
100 to 1000	< 100	Cc1cc(NC(=O)C(=O)N2C[C@H](C)CC[C@H]2c2ccc3sc(C4CCN(C)CC4)nc3c2)cnc1N (single isomer, unassigned) [Compound 1293]	< 1000	–
> 1000	100 to 1000	CCc1cc(NC(=O)C(=O)N2C[C@H](C)CC[C@H]2c2ccc3scnc3c2)cnc1N (stereo in doubt) [Compound 694, N-(6-amino-5-ethyl-3-pyridyl)-2-[(2S,5R)-2-(1,3-benzothiazol-5-yl)-5-methyl-1-piperidyl]-2-oxo-acetamide]	1000 to 10000	–
100 to 1000	< 100	CCc1cc(NC(=O)C(=O)N2C[C@@H](C)CC[C@@H]2c2ccc3scnc3c2)cnc1N (stereo in doubt) [Compound 701, N-(6-amino-5-ethyl-3-pyridyl)-2-[(2R,5S)-2-(1,3-benzothiazol-5-yl)-5-methyl-1-piperidyl]-2-oxo-acetamide]	< 1000	–
< 100	< 100	Cc1cc(NC(=O)C(=O)N2C[C@@H](C)CC[C@@H]2c2ccc3sc(N4CCN(C)CC4)nc3c2)cnc1N [Compound 1158, N-(6-amino-5-methylpyridin-3-yl)-2-((2R,5S)-5-methyl-2-(2-(4-methylpiperazin-1-yl)benzo[d]thiazol-5-yl)piperidin-1-yl)-2-oxoacetamide]	< 1000	–
< 100	< 100	Cc1cc(NC(=O)C(=O)N2C[C@@H](C)CC[C@@H]2c2ccc3sc([C@H]4CCN(C)C(=O)C4)nc3c2)cnc1N [Compound 1333, N-(6-amino-5-methylpyridin-3-yl)-2-((2R,5S)-5-methyl-2-(2-(1-methyl-2-oxopiperidin-4-yl)benzo[d]thiazol-5-yl)piperidin-1-yl)-2-oxoacetamide]	< 1000	–

Further lines, the compound ahead of its results:

Structure (SMILES)	IC50 [1, 4] [nM]	IC50 [3, 6] [nM]	IC50 [2, 5] [nM]	further results
Cc1cc(NC(=O)C(=O)N2C[C@@H](C)CC[C@@H]2c2ccc3c(c2)CCC(=O)N3)cnc1N (single isomer, unassigned) [Compound 502]	100 to 1000	< 100	< 1000	–
Cc1cc(NC(=O)C(=O)N2C[C@H](C)CC[C@H]2c2ccc3c(c2)CCC(=O)N3)cnc1N (single isomer, unassigned) [Compound 505]	100 to 1000	< 100	< 1000	–
C[C@H]1CC[C@H](c2ccc3scnc3c2)N(C(=O)C(=O)Nc2cncc(C(N)=O)c2)C1 (single isomer, unassigned) [Compound 587]	100 to 1000	< 100	< 1000	–
C[C@@H]1CC[C@@H](c2ccc3scnc3c2)N(C(=O)C(=O)Nc2cncc(C(N)=O)c2)C1 (single isomer, unassigned) [Compound 588]	> 1000	> 1000	> 10000	–
Cc1cc([C@@H]2CC[C@@H](C)CN2C(=O)C(=O)Nc2cncc(C(N)=O)c2)cc2cn[nH]c12 (single isomer, unassigned) [Compound 611]	–	–	–	IC50 [1, 7]: > 1000 nM; IC50 [2, 8]: > 10000 nM; IC50 [3, 9]: > 1000 nM; MTAP intact/deleted ratio [3]: C (an IC50 ratio of less than 3 fold)
Cc1cc(NC(=O)C(=O)N2C[C@@H](C)CC[C@@H]2c2ccc3c(c2)CC(=O)N3)cnc1N (single isomer, unassigned) [Compound 678]	< 100	< 100	< 1000	–
COc1ncc(NC(=O)C(=O)N2C[C@H](C)CC[C@H]2c2ccc3sc(C)nc3c2)cc1C(N)=O (single isomer, unassigned) [Compound 808]	–	–	–	IC50 [1, 7]: > 1000 nM; IC50 ([2]; HAP1, viability assay, HAP1 MTAP-deleted, read-out: HAP1 MTAP deleted viability): > 10000 nM; IC50 ([3]; HAP1, SDMA in-cell western, HAP1 MTAP-deleted, read-out: HAP1 MTAP deleted IC50): > 1000 nM
C[C@H]1CC[C@H](c2ccc3cnccc3c2)N(C(=O)C(=O)Nc2cncc(C(N)=O)c2)C1 (single isomer, unassigned) [Compound 885]	> 1000	> 1000	> 10000	–
C[C@@H]1CC[C@@H](c2ccc3cnccc3c2)N(C(=O)C(=O)Nc2cncc(C(N)=O)c2)C1 (single isomer, unassigned) [Compound 892]	> 1000	< 100	< 1000	–
Cc1cc(NC(=O)C(=O)N2C[C@H](C)CC[C@H]2c2ccc3cnccc3c2)cnc1N (single isomer, unassigned) [Compound 1000]	100 to 1000	< 100	< 1000	–
Cc1cc(NC(=O)C(=O)N2C[C@@H](C)CC[C@@H]2c2ccc3cnccc3c2)cnc1N (single isomer, unassigned) [Compound 1002]	> 1000	100 to 1000	> 10000	–
C[C@@H]1CC[C@@H](c2ccc3sc(C4CCN(C)CC4)nc3c2)N(C(=O)C(=O)Nc2cnc(N)c(C3CC3)c2)C1 (single isomer, unassigned) [Compound 1201]	> 1000	100 to 1000	< 1000	–
C[C@H]1CC[C@H](c2ccc3sc(C4CCN(C)CC4)nc3c2)N(C(=O)C(=O)Nc2cnc(N)c(C3CC3)c2)C1 (single isomer, unassigned) [Compound 1222]	< 100	< 100	< 1000	–
Cc1cc(NC(=O)C(=O)N2C[C@@H](C)CC[C@@H]2c2ccc3sc(CCN(C)C)nc3c2)cnc1N (single isomer, unassigned) [Compound 1279]	< 100	< 100	< 1000	–
Cc1cc(NC(=O)C(=O)N2C[C@@H](C)CC[C@@H]2c2ccc3sc(C4CCN(C)CC4)nc3c2)cnc1N (single isomer, unassigned) [Compound 1314]	< 100	< 100	< 1000	–
C[C@H]1CC[C@H](c2ccc3sc(C4CCN(C)CC4)nc3c2)N(C(=O)C(=O)Nc2cnc(N)c(C3COC3)c2)C1 (single isomer, unassigned) [Compound 1334]	< 100	< 100	< 1000	–
Cc1cc(NC(=O)C(=O)N2C[C@H](C)CC[C@H]2c2ccc3cn[nH]c3c2)cnc1N (stereo in doubt) [Compound 613, N-(6-amino-5-methyl-3-pyridyl)-2-[(2S,5R)-2-(1H-indazol-6-yl)-5-methyl-1-piperidyl]-2-oxo-acetamide]	–	–	–	IC50 [1, 7]: > 1000 nM; IC50 [2, 8]: > 10000 nM; IC50 [3, 9]: > 1000 nM; MTAP intact/deleted ratio [3]: C (an IC50 ratio of less than 3 fold)
Cc1cc(NC(=O)C(=O)N2C[C@@H](C)CC[C@@H]2c2ccc3c[nH]nc3c2)cnc1N (stereo in doubt) [Compound 636, N-(6-amino-5-methyl-3-pyridyl)-2-[(2R,5S)-2-(1H-indazol-6-yl)-5-methyl-1-piperidyl]-2-oxo-acetamide]	–	–	–	IC50 [1, 7]: 100 to 1000 nM; IC50 [2, 8]: < 1000 nM; IC50 [3, 9]: < 100 nM; MTAP intact/deleted ratio [3]: A (an IC50 ratio greater than or equal to 10 fold)
Cc1cc(NC(=O)C(=O)N2CCCCC2c2ccccc2)cnc1C (stereo not drawn) [Compound 139, N-(5,6-dimethylpyridin-3-yl)-2-oxo-2-(2-phenylpiperidin-1-yl)acetamide]	> 1000	> 1000	> 10000	–
Cc1cc(NC(=O)C(=O)N2C[C@@H](C)CC[C@@H]2c2ccc3scnc3c2)cnc1N [Compound 616, N-(6-amino-5-methyl-3-pyridyl)-2-[(2R,5S)-2-(1,3-benzothiazol-5-yl)-5-methyl-1-piperidyl]-2-oxo-acetamide]	100 to 1000	< 100	< 1000	–
[2H]c1nc2cc([C@H]3CC[C@H](C)CN3C(=O)C(=O)Nc3cnc(N)c(C)c3)ccc2s1 [Compound 1177]	100 to 1000	< 100	< 1000	–
C[C@H]1CC[C@H](c2ccc3scnc3c2)N(C(=O)C(=O)Nc2cnc(N)c(C3CC3)c2)C1 [Compound 1319, N-(6-amino-5-cyclopropyl-3-pyridyl)-2-[(2R,5S)-2-(1,3-benzothiazol-5-yl)-5-methyl-1-piperidyl]-2-oxo-acetamide]	100 to 1000	< 100	< 1000	–
C[C@H]1CC[C@H](c2ccc3scnc3c2)N(C(=O)C(=O)Nc2cnc(N)c(C3COC3)c2)C1 [Compound 1356, N-[6-amino-5-(oxetan-3-yl)-3-pyridyl]-2-[(2R,5S)-2-(1,3-benzothiazol-5-yl)-5-methyl-1-piperidyl]-2-oxo-acetamide]	100 to 1000	< 100	< 1000	–

— patent publication US11999727B2 (Tango Therapeutics, Inc., priority 2020, dated 2024)
